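Each compound was tested at five concentrations against cells in 96-well plates for 48 hours. GI50 marks 50% less growth.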 Activity calls are given as the source filed them. No stated cut-off is given here; in the data, active = GI50 up to about 1.1 µM and inactive = higher.
How the values were obtained:
Assay in all cases: NCI-60 cell line screen, 48 h
SNB-19 = system: SNB-19
Hs-578T = system: Hs-578T
BT-549 = system: BT-549
NCI-H23 = system: NCI-H23
SF-539 = system: SF-539
HCT-116 = system: HCT-116
M14 = system: M14
HL-60 = system: HL-60
UO-31 = system: UO-31
OVCAR-3 = system: OVCAR-3
HCC 2998 = system: HCC 2998
A549 = system: A549
NCI-H460 = system: NCI-H460
SW-620 = system: SW-620
PC-3 = system: PC-3
UACC-62 = system: UACC-62
SNB-75 = system: SNB-75
HOP-92 = system: HOP-92
COLO 205 = system: COLO 205
MDA-MB-231 = system: MDA-MB-231

SMILES | GI50 (SNB-19) | GI50 (Hs-578T) | GI50 (BT-549) | GI50 (NCI-H23) | GI50 (SF-539) | GI50 (HCT-116) | GI50 (M14) | GI50 (HL-60) | GI50 (UO-31) | GI50 (OVCAR-3) | GI50 (HCC 2998) | GI50 (A549) | GI50 (NCI-H460) | GI50 (SW-620) | GI50 (PC-3) | GI50 (UACC-62) | GI50 (SNB-75) | GI50 (HOP-92) | GI50 (COLO 205) | GI50 (MDA-MB-231)
CCCC(O)c1cn(C(NC(=O)c2ccccc2)P(=O)(OCC)OCC)nn1 (stereo not given) | > 100 µM (inactive) | > 100 µM (inactive) | > 100 µM (inactive) | > 100 µM (inactive) | > 100 µM (inactive) | > 100 µM (inactive) | > 100 µM (inactive) | > 100 µM (inactive) | > 100 µM (inactive) | > 100 µM (inactive) | > 100 µM (inactive) | > 100 µM (inactive) | > 100 µM (inactive) | > 100 µM (inactive) | > 100 µM (inactive) | 39.4 µM (inactive) | > 100 µM (inactive) | > 100 µM (inactive) | > 100 µM (inactive) | > 100 µM (inactive)
Cn1cnc2c(OCC3CCCCC3)nc(N)nc21 | > 100 µM (inactive) | > 100 µM (inactive) | > 100 µM (inactive) | > 100 µM (inactive) | > 100 µM (inactive) | > 100 µM (inactive) | > 100 µM (inactive) | > 100 µM (inactive) | 72.9 µM (inactive) | > 100 µM (inactive) | > 100 µM (inactive) | > 100 µM (inactive) | > 100 µM (inactive) | > 100 µM (inactive) | > 100 µM (inactive) | > 100 µM (inactive) | 36.3 µM (inactive) | 32.4 µM (inactive) | > 100 µM (inactive) | > 100 µM (inactive)
CCCCCCCCCCCCCCCCCCNc1ccn(C2OC(CO)C(OP(=O)(O)OCC(COP(=O)(O)OCC3OC(n4cc(F)c(NCCCCCCCCCCCCCCCCCC)nc4=O)CC3O)OC(=O)CCCCCCCCCCCCCCC)C2O)c(=O)n1 (stereo not given) | > 100 µM (inactive) | > 100 µM (inactive) | > 100 µM (inactive) | > 100 µM (inactive) | > 100 µM (inactive) | > 100 µM (inactive) | > 100 µM (inactive) | 67.1 µM (inactive) | > 100 µM (inactive) | > 100 µM (inactive) | > 100 µM (inactive) | > 100 µM (inactive) | > 100 µM (inactive) | > 100 µM (inactive) | > 100 µM (inactive) | > 100 µM (inactive) | > 100 µM (inactive) | > 100 µM (inactive) | > 100 µM (inactive) | > 100 µM (inactive)
CC1(C)N(OC2CCCCO2)C(c2ccccc2)C(c2ccccc2)=[N+]1[O-] (stereo not given) | > 100 µM (inactive) | 94 µM (inactive) | > 100 µM (inactive) | 49.9 µM (inactive) | > 100 µM (inactive) | 60.3 µM (inactive) | 64 µM (inactive) | 8.93 µM (inactive) | 59.8 µM (inactive) | 54.3 µM (inactive) | > 100 µM (inactive) | 58.6 µM (inactive) | 66.7 µM (inactive) | > 100 µM (inactive) | 52.2 µM (inactive) | > 100 µM (inactive) | 20.1 µM (inactive) | > 100 µM (inactive) | > 100 µM (inactive) | > 100 µM (inactive)
CC(=O)C(=Cc1ccc(C=C(C(C)=O)C(C)=O)cc1)C(C)=O | 2.1 µM (inactive) | 3.58 µM (inactive) | 2.05 µM (inactive) | 1.93 µM (inactive) | 2.1 µM (inactive) | 0.637 µM (active) | 1.34 µM (inactive) | 0.31 µM (active) | 1.6 µM (inactive) | 2.01 µM (inactive) | 4.81 µM (inactive) | 2.93 µM (inactive) | 2.59 µM (inactive) | 0.611 µM (active) | 1.9 µM (inactive) | 1.65 µM (inactive) | 1.78 µM (inactive) | 2.12 µM (inactive) | 1.7 µM (inactive) | 1.97 µM (inactive)
